Experimental data: ChEMBL document CHEMBL1138245, “Discovery of N1-(6-chloroimidazo[2,1-b][1,3]thiazole-5-sulfonyl)tryptamine as a potent, selective, and orally active 5-HT(6) receptor agonist” (J Med Chem, 2007)

Columns and labels:
[1] = target: T1, 5-hydroxytryptamine receptor 6 (Homo sapiens, UniProt P50406); assay: Agonist activity at human 5HT6 receptor expressed in HeLa cells assessed as cAMP production; format: functional, cell-based
[2] = target: T1, 5-hydroxytryptamine receptor 6; assay: Displacement of [3H]LSD from human 5HT6 receptor expressed in HeLa cells; format: cell-based

T1 sequence (P50406 whole entry): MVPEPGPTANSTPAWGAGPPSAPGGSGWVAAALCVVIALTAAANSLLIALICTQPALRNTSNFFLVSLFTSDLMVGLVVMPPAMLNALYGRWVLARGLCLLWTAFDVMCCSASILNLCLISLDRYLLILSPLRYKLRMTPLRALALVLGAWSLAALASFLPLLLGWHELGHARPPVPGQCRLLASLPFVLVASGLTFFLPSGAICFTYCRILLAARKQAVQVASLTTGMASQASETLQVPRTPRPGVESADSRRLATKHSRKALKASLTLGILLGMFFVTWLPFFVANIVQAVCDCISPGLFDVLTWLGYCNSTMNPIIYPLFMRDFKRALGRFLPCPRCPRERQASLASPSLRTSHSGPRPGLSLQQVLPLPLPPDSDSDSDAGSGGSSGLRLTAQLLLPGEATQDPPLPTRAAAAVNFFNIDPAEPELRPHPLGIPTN

NCCc1cn(S(=O)(=O)c2ccccc2Br)c2ccccc12
EC50 [1]: 0.148 µM
Emax [1]: 97.5%
Ki [2]: 0.011 µM
